Source: the supplement of paper PMC10307832

compound: CC(C)(C)c1nc(-c2cccc(NS(=O)(=O)c3c(F)cccc3F)c2F)c(-c2ccnc(N)n2)s1 [Dabrafenib]; experiment: relative viability (nuclei count vs DMSO), 5 days (fraction); higher = more cells survive; details: 0.003 µM
Outline: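 Lung cancer cell lines were seeded into 1536-well plates, kept overnight at 37 °C and pinned with five library-drug doses (not always all listed) spaced by √10. After 5 days, nuclei were Hoechst-stained, imaged at 4× and counted with MetaXpress. Viability is treated-well nuclei over vehicle-well nuclei, taken as a median across plates. Plates needed control CV below 25% and at least one doubling.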

Q: With ABC-1 as the cell line, how does the relative viability read?
A: 0.833

Q: With CAL-12T as the cell line, how does the relative viability read?
A: 0.96

Q: For NCI-H1944, which relative viability is on record?
A: 0.911

Q: With NCI-H2085 as the cell line, how does the relative viability read?
A: 0.846

Q: IA-LM was tested. Which relative viability did it give?
A: 1

Q: NCI-H2228 was tested. Which relative viability did it give?
A: 0.864

Q: How did the relative viability turn out when NCI-H2170 was run?
A: 0.991

Q: Which relative viability does the source give for NCI-H1703 here?
A: 1

Q: For UMC-11, which relative viability is on record?
A: 1.04

Q: LCLC-103H was tested. Which relative viability did it give?
A: 0.883

Q: HCC-827 was tested. Which relative viability did it give?
A: 0.916

Q: For COR-L 105, which relative viability is on record?
A: 0.851

Q: How did the relative viability turn out when NCI-H1299 was run?
A: 0.991

Q: Which relative viability does the source give for NCI-H2126 here?
A: 0.875

Q: Which relative viability does the source give for A549 here?
A: 0.928

Q: HCC-44 was tested. Which relative viability did it give?
A: 0.885

Q: NCI-H1651 was tested. Which relative viability did it give?
A: 0.977

Q: NCI-H1755 was tested. Which relative viability did it give?
A: 0.99

Q: With HOP-62 as the cell line, how does the relative viability read?
A: 0.778

Q: PC-14 was tested. Which relative viability did it give?
A: 0.795

Q: For NCI-H1650, which relative viability is on record?
A: 0.944

Q: ChaGo-K-1 was tested. Which relative viability did it give?
A: 0.787

Q: With NCI-H1648 as the cell line, how does the relative viability read?
A: 1.02

Q: NCI-H2342 was tested. Which relative viability did it give?
A: 0.864

same assay, conditions: 0.009487 µM

Q: How did the relative viability turn out when ABC-1 was run?
A: 1.06

Q: CAL-12T was tested. Which relative viability did it give?
A: 1.01

Q: Which relative viability does the source give for NCI-H1944 here?
A: 0.997

Q: Which relative viability does the source give for NCI-H2085 here?
A: 1.06

Q: With IA-LM as the cell line, how does the relative viability read?
A: 0.84

Q: Which relative viability does the source give for NCI-H2228 here?
A: 0.987

Q: NCI-H441 was tested. Which relative viability did it give?
A: 0.96

Q: For NCI-H522, which relative viability is on record?
A: 1.2

Q: Which relative viability does the source give for EMC-BAC-2 here?
A: 1.04

Q: How did the relative viability turn out when NCI-H2170 was run?
A: 1.01

Q: How did the relative viability turn out when NCI-H1703 was run?
A: 1.12

Q: For UMC-11, which relative viability is on record?
A: 0.988

Q: How did the relative viability turn out when NCI-H650 was run?
A: 1.17

Q: Which relative viability does the source give for LCLC-103H here?
A: 1.11

Q: Which relative viability does the source give for NCI-H596 here?
A: 1.13

Q: HCC-827 was tested. Which relative viability did it give?
A: 1.08

Q: COR-L 105 was tested. Which relative viability did it give?
A: 0.995

Q: For NCI-H1299, which relative viability is on record?
A: 0.988

Q: NCI-H2126 was tested. Which relative viability did it give?
A: 1.06

Q: With A549 as the cell line, how does the relative viability read?
A: 1.03

Q: Which relative viability does the source give for NCI-H647 here?
A: 0.967

Q: With LOU-NH91 as the cell line, how does the relative viability read?
A: 1.07

Q: Which relative viability does the source give for HCC-78 here?
A: 1.03

Q: Which relative viability does the source give for HCC-44 here?
A: 0.971

Q: NCI-H1651 was tested. Which relative viability did it give?
A: 0.939

Q: How did the relative viability turn out when NCI-H1755 was run?
A: 1.03

Q: With HOP-62 as the cell line, how does the relative viability read?
A: 1.02

Q: With PC-14 as the cell line, how does the relative viability read?
A: 1.05

Q: How did the relative viability turn out when NCI-H1650 was run?
A: 1.26

Q: Which relative viability does the source give for ChaGo-K-1 here?
A: 0.951

Q: Which relative viability does the source give for NCI-H1648 here?
A: 0.861

Q: With NCI-H2342 as the cell line, how does the relative viability read?
A: 0.988

Q: Which relative viability does the source give for NCI-H1623 here?
A: 0.969

same assay, conditions: 0.03 µM

Q: ABC-1 was tested. Which relative viability did it give?
A: 0.871

Q: Which relative viability does the source give for CAL-12T here?
A: 1.05

Q: For NCI-H1944, which relative viability is on record?
A: 0.841

Q: With NCI-H2085 as the cell line, how does the relative viability read?
A: 1

Q: IA-LM was tested. Which relative viability did it give?
A: 0.984

Q: NCI-H2228 was tested. Which relative viability did it give?
A: 0.994

Q: With NCI-H441 as the cell line, how does the relative viability read?
A: 1.01

Q: NCI-H522 was tested. Which relative viability did it give?
A: 1

Q: EMC-BAC-2 was tested. Which relative viability did it give?
A: 0.706

Q: NCI-H2170 was tested. Which relative viability did it give?
A: 0.906

Q: With NCI-H1703 as the cell line, how does the relative viability read?
A: 0.887

Q: With UMC-11 as the cell line, how does the relative viability read?
A: 0.855

Q: Which relative viability does the source give for NCI-H650 here?
A: 0.708

Q: For LCLC-103H, which relative viability is on record?
A: 0.919

Q: How did the relative viability turn out when NCI-H596 was run?
A: 0.768

Q: HCC-827 was tested. Which relative viability did it give?
A: 0.996

Q: With COR-L 105 as the cell line, how does the relative viability read?
A: 0.927

Q: For NCI-H1299, which relative viability is on record?
A: 0.963

Q: Which relative viability does the source give for NCI-H2126 here?
A: 0.994

Q: How did the relative viability turn out when A549 was run?
A: 0.93

Q: NCI-H647 was tested. Which relative viability did it give?
A: 0.71

Q: For LOU-NH91, which relative viability is on record?
A: 0.905

Q: With HCC-78 as the cell line, how does the relative viability read?
A: 0.932

Q: Which relative viability does the source give for HCC-44 here?
A: 1.01

Q: Which relative viability does the source give for NCI-H1651 here?
A: 0.953

Q: With NCI-H1755 as the cell line, how does the relative viability read?
A: 0.875

Q: With HOP-62 as the cell line, how does the relative viability read?
A: 1.03

Q: PC-14 was tested. Which relative viability did it give?
A: 1.11

Q: NCI-H1650 was tested. Which relative viability did it give?
A: 0.854

Q: ChaGo-K-1 was tested. Which relative viability did it give?
A: 0.876

Q: With NCI-H1648 as the cell line, how does the relative viability read?
A: 0.814

Q: For NCI-H2342, which relative viability is on record?
A: 0.856

Q: For NCI-H1623, which relative viability is on record?
A: 0.924

same assay, conditions: 0.09487 µM

Q: How did the relative viability turn out when ABC-1 was run?
A: 0.844

Q: For CAL-12T, which relative viability is on record?
A: 0.946

Q: For NCI-H1944, which relative viability is on record?
A: 0.952

Q: How did the relative viability turn out when NCI-H2085 was run?
A: 0.999

Q: How did the relative viability turn out when IA-LM was run?
A: 0.58

Q: NCI-H2228 was tested. Which relative viability did it give?
A: 0.902

Q: For NCI-H441, which relative viability is on record?
A: 0.51

Q: With NCI-H522 as the cell line, how does the relative viability read?
A: 0.97

Q: With EMC-BAC-2 as the cell line, how does the relative viability read?
A: 0.701

Q: For NCI-H2170, which relative viability is on record?
A: 0.815

Q: For NCI-H1703, which relative viability is on record?
A: 0.843

Q: UMC-11 was tested. Which relative viability did it give?
A: 0.997

Q: How did the relative viability turn out when NCI-H650 was run?
A: 0.575

Q: LCLC-103H was tested. Which relative viability did it give?
A: 1.01

Q: Which relative viability does the source give for NCI-H596 here?
A: 1.03

Q: For COR-L 105, which relative viability is on record?
A: 0.955

Q: How did the relative viability turn out when NCI-H1299 was run?
A: 0.92

Q: With NCI-H2126 as the cell line, how does the relative viability read?
A: 1.02

Q: With A549 as the cell line, how does the relative viability read?
A: 0.93

Q: Which relative viability does the source give for NCI-H647 here?
A: 0.871

Q: For LOU-NH91, which relative viability is on record?
A: 0.935

Q: With HCC-78 as the cell line, how does the relative viability read?
A: 0.816

Q: For HCC-44, which relative viability is on record?
A: 0.921

Q: NCI-H1651 was tested. Which relative viability did it give?
A: 1.02

Q: NCI-H1755 was tested. Which relative viability did it give?
A: 0.94

Q: Which relative viability does the source give for HOP-62 here?
A: 0.685

Q: How did the relative viability turn out when PC-14 was run?
A: 1.01

Q: For NCI-H1650, which relative viability is on record?
A: 1.07

Q: Which relative viability does the source give for ChaGo-K-1 here?
A: 0.912

Q: Which relative viability does the source give for NCI-H1648 here?
A: 1.12

Q: Which relative viability does the source give for NCI-H2342 here?
A: 1.06

Q: Which relative viability does the source give for NCI-H1623 here?
A: 1.03

same assay, conditions: 0.3 µM

Q: With ABC-1 as the cell line, how does the relative viability read?
A: 1.02

Q: CAL-12T was tested. Which relative viability did it give?
A: 1.18

Q: NCI-H1944 was tested. Which relative viability did it give?
A: 0.985

Q: NCI-H2085 was tested. Which relative viability did it give?
A: 1.09

Q: Which relative viability does the source give for IA-LM here?
A: 0.405

Q: For NCI-H2228, which relative viability is on record?
A: 0.944

Q: With NCI-H441 as the cell line, how does the relative viability read?
A: 0.766

Q: NCI-H522 was tested. Which relative viability did it give?
A: 1.07
